Laboratory results from patent publication US5698672A, “Synthetic calcitonin mimetics” (ZymoGenetics, Inc., priority 1995, dated 1997).
[ ]: non-standard residue; d: D form. Aib = CC(C)(N)C(=O)O

Tests used:
[1] = system: KZ10-20-48 (BHK 570 cells with CRE-luciferase reporter); assay: CRE-luciferase induction in BHK/KZ10-20-48 cells; assay type: cell-based, hamster; settings: clone KZ10-20-48; 25 mM forskolin, 4 hours; range 15-25 fold
human glucagon receptor = human glucagon receptor (Homo sapiens, UniProt P47871); settings: KZ10-20-48/pLJ6-4-25
Source text: Test substances that appeared to specifically elevate luciferase expression in calcitonin receptor-positive cells, but not calcitonin receptor-negative cells, were subjected to an additional specificity check, i.e., their inability to activate other members of the G-protein coupled-receptor family.

[2] = system: KZ10-20-48/Zem 228 (calcitonin receptor-negative BHK cells); assay: CRE-luciferase induction in receptor-negative KZ10-20-48/Zem 228 cells; settings: Mesocricetus auratus, read-out: EC50, CRE-luciferase induction
[3] = biological target: hamster calcitonin receptor (Mesocricetus auratus, UniProt A0A3Q0D7K7); assay: CRE-luciferase induction in Boris/KZ10-3 cells (hamster calcitonin receptor)
[4] = biological target: T1, human calcitonin receptor (Homo sapiens, UniProt P30988); assay: CRE-luciferase induction in Hollex-1 cells (BHK, human calcitonin receptor); assay type: cell-based
T1 construct: expressed in transfected cells; host or cells: BHK 570 derivative KZ10-20-48 (clone Hollex-1)
T1 sequence (P30988 25-474): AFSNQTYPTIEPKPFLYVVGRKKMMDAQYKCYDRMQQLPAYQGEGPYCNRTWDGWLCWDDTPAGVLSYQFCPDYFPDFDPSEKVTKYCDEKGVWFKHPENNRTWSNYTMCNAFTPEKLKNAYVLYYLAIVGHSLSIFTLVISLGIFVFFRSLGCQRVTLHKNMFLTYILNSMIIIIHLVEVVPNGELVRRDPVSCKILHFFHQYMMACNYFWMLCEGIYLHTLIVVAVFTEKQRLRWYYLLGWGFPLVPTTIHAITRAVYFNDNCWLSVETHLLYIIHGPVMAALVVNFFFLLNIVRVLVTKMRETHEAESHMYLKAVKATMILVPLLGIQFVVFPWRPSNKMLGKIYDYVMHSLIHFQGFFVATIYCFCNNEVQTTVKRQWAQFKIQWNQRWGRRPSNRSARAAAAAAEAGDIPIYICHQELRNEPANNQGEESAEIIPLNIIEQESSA

[5] = system: osteoclasts in mouse calvariae; assay: Calvaria histology: osteoclast number and size; assay type: cell-based; settings: PTH induced bone resorption in mouse calvariae
Source text: To confirm the findings in the calvarial bone resorption assay employing calcium release from culture mouse calvariae, selected bones were fixed in 10% neutral buffered formalin and demineralized in 5% formic acid with 5% formalin. The bones were dehydrated through an ascending series of ethanol concentrations, infiltrated in glycol methacrylate, and embedded using a JB-4 embedding kit (PolySciences, Warrington, Pa.) (Liu and Kalu, J. Bone Miner. Res., 5:973-82, 1990). Cross sections of calvariae cut at […] were obtained and stained for tartrate-resistant acid phosphatase (TRAP) activity and counterstained with methyl green and thionin for cell morphology (Liu and Kalu, J. Bone. Miner. Res. 1990, supra). osteoclasts were identified by TRAP stain, multinucleation, large cell size, and irregular cell shape. The number of osteoclasts were counted from endocranial and ectocranial bone surfaces and expressed as number/mm perimeter. The size of all the osteoclasts counted was also measured using a Bone Morphometry program (Lui and Kalu, supra.; Bain et al., J. Bone Miner. Res. 8:435-42, 1993). […] This PTH-induced increase was suppressed by treatment with human calcitonin.
Calcitonin mimetic compounds were evaluated in a similar fashion for their ability to suppress PTH-induced increases in osteoclast number and size. Cell toxicity (or death) was also evaluated morphologically. […]

calcitonin receptor = assay: CRE-luciferase assay for calcitonin mimetics (calcitonin receptor-positive cell line, Hollex-1 or Boris/KZ10); assay type: cell-based; settings: calcitonin receptor-positive cells; cell line not given; read-out: CRE-Luciferase Induction EC50
Source text: All synthetic calcitonin mimetics are subjected to an assay system that permits rapid identification of substances having selective calcitonin receptor activity on cells expressing the calcitonin receptor. Only those modifications which retain calcitonin-like activity, as assayed by the CRE-luciferase assay for example, are within the scope of this invention. The calcitonin receptor is a member of the G-protein receptor family and transduces signal via activation of adenylate cyclase, leading to elevation of cellular cAMP levels (Lin et al., Science 254:1022-24, 1991). This assay system exploits the receptor's ability to elevate cAMP levels as a way to detect other molecules, not calcitonin, that are able to stimulate the calcitonin receptor and initiate signal transduction.

[6] = system: PTH induced bone resorption in mouse calvariae; assay: Calvarial assay: PTH induced bone resorption, calcium release; assay type: cell-based; settings: 1 nM PTH 1-34, 72 hours, neonatal mouse calvariae; read-out: Inhibition of Ca++ Release EC50
Procedure: Calvaria from 4-day old neonatal CD-1 mice (pregnant mice received from Charles River Laboratories, Wilmington, Mass.) were trimmed with fine-tipped scissors to leave the parietal regions, including the sagittal suture. These trimmed bones were placed singly per well into 6-well cell culture cluster plates (Costar, Pleasanton, Calif.) with 1 ml/well of growth medium (DMEM (BioWhittaker, Walkersville, Md.) with 4.5 g/L glucose, 0.29 mg/ml L-glutamine, 1 mM sodium pyruvate, 15% heat-inactivated horse serum, and antibiotics (penicillin-G […], streptomycin […], and neomycin […])), and rocked gently (RedRocker™, model PR50-115V) (Hoefer, San Francisco, Calif.) at 37° C. in a 5% CO2 humidified incubator for 24 hours preincubation.
Following incubation, medium was removed and replaced with 1.5 ml/well of growth medium containing 1 nM parathyroid hormone (PTH) 1-34 (Sigma) to stimulate bone resorption. For evaluation of the ability of synthetic calcitonin mimetics to inhibit PTH induced bone resorption, mimetic compounds in DMSO were added to the growth medium at concentrations ranging from […] (final assay concentration of DMSO less than or equal to 1%). In each experiment human calcitonin (0.02-20 nM, 0.2-2 nM preferred) was added to PTH treated bones as a positive control. […]

human glucagon receptor, sequence (P47871 26-477): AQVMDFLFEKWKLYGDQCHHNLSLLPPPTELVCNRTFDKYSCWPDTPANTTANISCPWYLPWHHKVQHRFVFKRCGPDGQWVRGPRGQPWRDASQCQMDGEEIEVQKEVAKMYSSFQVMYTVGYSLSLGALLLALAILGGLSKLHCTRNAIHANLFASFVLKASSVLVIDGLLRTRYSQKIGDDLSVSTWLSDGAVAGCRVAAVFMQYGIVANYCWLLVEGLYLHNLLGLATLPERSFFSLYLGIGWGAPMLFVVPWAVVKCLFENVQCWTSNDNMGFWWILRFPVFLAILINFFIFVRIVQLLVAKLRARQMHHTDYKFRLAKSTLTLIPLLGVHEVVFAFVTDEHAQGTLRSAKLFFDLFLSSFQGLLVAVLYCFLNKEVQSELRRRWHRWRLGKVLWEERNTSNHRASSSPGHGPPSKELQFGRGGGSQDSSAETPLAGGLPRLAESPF
hamster calcitonin receptor, sequence (A0A3Q0D7K7 entry or part of it): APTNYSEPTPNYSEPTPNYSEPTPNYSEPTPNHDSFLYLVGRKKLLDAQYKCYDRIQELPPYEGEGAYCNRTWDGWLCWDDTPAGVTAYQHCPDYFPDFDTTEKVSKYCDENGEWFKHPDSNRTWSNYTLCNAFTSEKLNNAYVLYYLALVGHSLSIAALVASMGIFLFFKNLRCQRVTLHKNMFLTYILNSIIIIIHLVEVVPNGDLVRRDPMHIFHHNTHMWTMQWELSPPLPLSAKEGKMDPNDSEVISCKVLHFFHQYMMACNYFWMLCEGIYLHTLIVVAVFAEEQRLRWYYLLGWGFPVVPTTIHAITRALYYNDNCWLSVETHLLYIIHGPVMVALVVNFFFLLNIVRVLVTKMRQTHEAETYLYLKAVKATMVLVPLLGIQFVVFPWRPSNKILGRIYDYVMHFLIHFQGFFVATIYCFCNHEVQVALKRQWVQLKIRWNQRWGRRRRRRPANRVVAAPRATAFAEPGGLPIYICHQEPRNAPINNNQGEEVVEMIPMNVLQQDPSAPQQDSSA

Row | Molecule | induction of CRE-luciferase [1] [fold] | induction of luciferase (human glucagon receptor) [fold] | EC50 [2] [nM] | induction of luciferase [3] [fold] | EC50 [4] [nM] | Histology [5] | EC50 (calcitonin receptor) [nM] | EC50 [6] [nM]
1 | C=C[C@@]1(C)CC(=O)[C@]2(O)[C@@]3(C)[C@@H](O)CCC(C)(C)[C@@H]3[C@H](O)[C@H](OC(C)=O)[C@@]2(C)O1 [forskolin] | 20 | 35 | 600 | 25 | 1200 | – | – | –
2 | Ac-W[Aib]Q[Aib]IT[Aib]L[Aib]PQ[Aib]PF-OH [Synthetic 2807] | – | – | – | – | – | Inhibitory | 2280 | 36000
